Experimental data from ChEMBL document CHEMBL4020846 (J Med Chem, 2018).
The source made the active and inactive calls. No cut-off for these calls is given here.

Experiments:
[1] = molecular target: T1, Nucleotide-binding oligomerization domain-containing protein 2 (Homo sapiens, UniProt Q9HC29); experiment: Agonist activity at human NOD2 expressed in HEK-Blue cells assessed as induction of NF-kB transcriptional activity at 20 uM after 18 hrs by SEAP reporter gene assay; type: cell-based
[2] = Cytotoxicity against HEK-Blue cells over-expressing NOD2 assessed as residual metabolic activity at 20 uM after 18 hrs by CellTiter 96 aqueous one solution cell proliferation assay relative to control; type: ADME, cell-based; details: human, read-out: Activity
[3] = molecular target: T2, Nucleotide-binding oligomerization domain-containing protein 1 (Homo sapiens) (UniProt Q9Y239); experiment: Agonist activity at human NOD1 expressed in HEK-Blue cells assessed as induction of NF-kB transcriptional activity at 20 uM after 18 hrs by SEAP reporter gene assay; type: cell-based
T2 sequence (whole entry): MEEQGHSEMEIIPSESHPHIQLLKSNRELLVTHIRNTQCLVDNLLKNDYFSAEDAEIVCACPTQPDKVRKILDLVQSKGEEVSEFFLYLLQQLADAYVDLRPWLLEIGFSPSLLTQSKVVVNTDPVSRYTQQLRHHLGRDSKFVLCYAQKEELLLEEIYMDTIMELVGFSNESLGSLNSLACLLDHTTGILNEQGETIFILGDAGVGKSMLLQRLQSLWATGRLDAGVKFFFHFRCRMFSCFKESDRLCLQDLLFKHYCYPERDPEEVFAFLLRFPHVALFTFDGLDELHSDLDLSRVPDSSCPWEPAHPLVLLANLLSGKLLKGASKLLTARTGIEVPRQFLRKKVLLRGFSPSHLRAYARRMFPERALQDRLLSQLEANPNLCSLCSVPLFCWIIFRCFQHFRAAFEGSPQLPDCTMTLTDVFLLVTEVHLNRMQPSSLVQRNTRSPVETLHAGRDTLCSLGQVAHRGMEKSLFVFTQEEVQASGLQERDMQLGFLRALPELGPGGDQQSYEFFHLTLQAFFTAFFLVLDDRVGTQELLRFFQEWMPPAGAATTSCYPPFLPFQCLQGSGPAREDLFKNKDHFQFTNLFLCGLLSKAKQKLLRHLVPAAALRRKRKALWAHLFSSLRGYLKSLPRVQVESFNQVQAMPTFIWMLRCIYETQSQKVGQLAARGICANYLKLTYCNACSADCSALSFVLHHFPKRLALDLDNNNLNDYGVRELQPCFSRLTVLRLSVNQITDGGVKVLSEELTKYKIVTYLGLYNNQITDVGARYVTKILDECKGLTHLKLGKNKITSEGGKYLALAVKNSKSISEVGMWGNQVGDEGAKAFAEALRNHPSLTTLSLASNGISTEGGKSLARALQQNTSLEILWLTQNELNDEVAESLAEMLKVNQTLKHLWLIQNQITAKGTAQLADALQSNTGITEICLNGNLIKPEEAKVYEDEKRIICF

[4] = molecular target: T1, Nucleotide-binding oligomerization domain-containing protein 2; experiment: Agonist activity at human NOD2 expressed in HEK-Blue cells assessed as induction of NF-kB transcriptional activity after 18 hrs by SEAP reporter gene assay; type: cell-based
[5] = molecular target: T1, Nucleotide-binding oligomerization domain-containing protein 2; experiment: Agonist activity at human NOD2 expressed in HEK-Blue cells assessed as induction of NF-kB transcriptional activity at 2 uM after 18 hrs by SEAP reporter gene assay relative to control; type: cell-based
[6] = molecular target: T1, Nucleotide-binding oligomerization domain-containing protein 2; experiment: Agonist activity at human NOD2 expressed in HEK-Blue cells assessed as induction of NF-kB transcriptional activity at 2 uM after 18 hrs in presence of NOD2 antagonist GSK-669 by SEAP reporter gene assay; type: cell-based
[7] = test system: PBMC; experiment: Immunostimulatory activity in human PBMC assessed as increase in TNF-alpha release at 2 uM after 18 hrs by flow cytometry; type: functional, cell-based
[8] = test system: PBMC; experiment: Immunostimulatory activity in human PBMC assessed as increase in IL-6 release at 2 uM after 18 hrs by flow cytometry; type: functional, cell-based
[9] = test system: PBMC; experiment: Immunostimulatory activity in human PBMC assessed as increase in IL-10 release at 2 uM after 18 hrs by flow cytometry; type: functional, cell-based
[10] = test system: PBMC; experiment: Immunostimulatory activity in human PBMC assessed as increase in IL-10 release at 2 uM after 18 hrs in presence of LPS by flow cytometry relative to control; type: functional
[11] = test system: PBMC; experiment: Immunostimulatory activity in human PBMC assessed as increase in TNF-alpha release at 2 uM after 18 hrs in presence of LPS by flow cytometry relative to control; type: functional
[12] = test system: PBMC; experiment: Immunostimulatory activity in human PBMC assessed as increase in IL-6 release at 2 uM after 18 hrs in presence of LPS by flow cytometry relative to control; type: functional
[13] = test system: PBMC; experiment: Immunostimulatory activity in human PBMC assessed as increase in IL-2 release at 2 uM after 18 hrs in presence of LPS by flow cytometry; type: functional, cell-based
[14] = test system: PBMC; experiment: Immunostimulatory activity in human PBMC assessed as increase in IL-4 release at 2 uM after 18 hrs in presence of LPS by flow cytometry; type: functional, cell-based
[15] = test system: PBMC; experiment: Immunostimulatory activity in human PBMC assessed as increase in IL-17A release at 2 uM after 18 hrs in presence of LPS by flow cytometry; type: functional, cell-based
[16] = test system: PBMC; experiment: Immunostimulatory activity in human PBMC assessed as increase in IFNgamma release at 2 uM after 18 hrs in presence of LPS by flow cytometry; type: functional, cell-based
[17] = test system: Mus musculus; experiment: Immunoadjuvant activity in ovalbumin-induced NIH/OlaHsd mouse model of adjuvancy assessed as induction of ovalbumin-specific humoral immune response by measuring increase in anti-OVA IgG level in serum at 200 ug, sc using liposome encapsulated compound measured on day 7 post second booster by ELISA; type: functional, organism-based
[18] = test system: Mus musculus; experiment: Immunoadjuvant activity in ovalbumin-induced NIH/OlaHsd mouse model of adjuvancy assessed as modulation of Th1/Th2-bias of induced immune response by measuring ratio of anti-OVA IgG1 to anti-OVA IgG2a level in serum at 200 ug, sc using liposome encapsulated compound measured on day 7 post second booster by ELISA (reference value: 1.69 +/- 0.28); type: functional
[19] = Drug metabolism in HEK293 cells assessed as retention time at 2 uM by LC-MS analysis; type: ADME, cell-based; details: human, hek293, 2 µM
[20] = Stability in HEK293 cells at 2 uM up to 18 hrs by LC-MS analysis; type: ADME, cell-based; details: human, hek293, 18 h
[21] = Drug level in HEK293 cells cytosol at 2 uM after 18 hrs by LC-MS analysis; type: ADME, cell-based; details: human

T1 sequence (Q9HC29 whole entry, the tested form may be a part): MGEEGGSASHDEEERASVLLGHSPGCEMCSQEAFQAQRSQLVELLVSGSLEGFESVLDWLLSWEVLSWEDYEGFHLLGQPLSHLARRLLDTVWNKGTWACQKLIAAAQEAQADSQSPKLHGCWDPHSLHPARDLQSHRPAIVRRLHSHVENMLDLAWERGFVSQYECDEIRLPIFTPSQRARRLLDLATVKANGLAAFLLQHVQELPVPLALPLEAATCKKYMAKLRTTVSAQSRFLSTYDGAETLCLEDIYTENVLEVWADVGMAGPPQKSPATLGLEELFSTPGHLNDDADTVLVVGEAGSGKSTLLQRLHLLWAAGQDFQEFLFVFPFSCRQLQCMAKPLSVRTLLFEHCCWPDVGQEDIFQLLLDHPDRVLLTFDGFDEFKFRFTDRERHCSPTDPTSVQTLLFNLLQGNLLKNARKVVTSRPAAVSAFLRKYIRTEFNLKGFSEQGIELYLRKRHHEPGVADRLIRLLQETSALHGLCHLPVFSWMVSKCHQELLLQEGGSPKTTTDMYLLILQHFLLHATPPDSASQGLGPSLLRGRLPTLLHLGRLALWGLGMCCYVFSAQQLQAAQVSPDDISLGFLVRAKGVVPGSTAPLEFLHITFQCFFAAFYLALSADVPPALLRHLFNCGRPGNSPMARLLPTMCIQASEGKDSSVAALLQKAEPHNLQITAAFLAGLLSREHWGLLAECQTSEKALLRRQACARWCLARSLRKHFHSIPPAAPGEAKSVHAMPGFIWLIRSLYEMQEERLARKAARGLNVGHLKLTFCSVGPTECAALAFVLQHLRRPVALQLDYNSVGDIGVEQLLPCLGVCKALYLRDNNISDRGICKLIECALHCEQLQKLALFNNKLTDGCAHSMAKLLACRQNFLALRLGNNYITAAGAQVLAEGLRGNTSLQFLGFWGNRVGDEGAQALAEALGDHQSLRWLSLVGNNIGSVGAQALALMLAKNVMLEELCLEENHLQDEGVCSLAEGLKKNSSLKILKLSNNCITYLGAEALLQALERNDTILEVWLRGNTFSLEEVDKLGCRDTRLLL

Structure (SMILES)	Activity [1]	Activity [3]	EC50 [4] [nM]	fold change (FC) [5]	Activity [6]	Activity [4]	viability at 18 h, 20 µM [2] [%]	also measured
COC(=O)c1ccc(C(=O)OC)c(NC(=O)[C@@H](NC(=O)CNC(=O)/C=C/c2ccc(O)c(OC)c2)C(C)C)c1	Active	inactive					> 80	
CCOC(=O)CC[C@@H](NC(=O)[C@H](C)NC(=O)CNC(=O)/C=C/c1ccc(O)c(OC)c1)C(=O)OCC	Active	inactive	2790	4.5	inactive		> 80	
CCOC(=O)[C@@H]1CCCC[C@@H]1NC(=O)[C@@H](NC(=O)CNC(=O)/C=C/c1ccc(O)c(OC)c1)C(C)C	Active	inactive					> 80	
CCOC(=O)CC[C@@H](NC(=O)[C@H](Cc1ccccc1)NC(=O)CNC(=O)c1cc2ccc(-c3ccccc3)cc2[nH]1)C(=O)OCC	Active	inactive	777	4.8	inactive	Dose-dependent effect	> 80	
COC(=O)c1cc(NC(=O)[C@@H](NC(=O)CNC(=O)/C=C/c2ccc(O)c(OC)c2)C(C)C)cc(C(=O)OC)c1	Active	inactive					> 80	
CCOC(=O)CC[C@@H](NC(=O)[C@@H](NC(=O)CNC(=O)c1cc2ccc(-c3ccccc3)cc2[nH]1)C(C)C)C(=O)OCC	Active	inactive		3.9	inactive		> 80	
CCOC(=O)CC[C@@H](NC(=O)[C@@H](NC(=O)CNC(=O)/C=C/c1ccc(F)c(F)c1)C(C)C)C(=O)OCC	Active	inactive	172	5.6	inactive		> 80	
CCOC(=O)CC[C@@H](NC(=O)[C@H](Cc1ccccc1)NC(=O)CNC(=O)[C@@H]1C[C@H]1c1ccccc1)C(=O)OCC	Active	inactive	472	5.3	inactive	Dose-dependent effect	> 80	
CCOC(=O)CC[C@@H](NC(=O)[C@H](Cc1ccccc1)NC(=O)CNC(=O)/C=C/c1ccccc1)C(=O)OCC	Active	inactive	388	5.3	inactive	Dose-dependent effect	> 80	
CCOC(=O)CC[C@@H](NC(=O)[C@@H](NC(=O)CNC(=O)[C@@H]1C[C@H]1c1ccccc1)C(C)C)C(=O)OCC	Active	inactive		4.4	inactive		> 80	
CCOC(=O)CC[C@@H](NC(=O)[C@@H](NC(=O)CNC(=O)C1CC1c1ccc(F)c(F)c1)C(C)C)C(=O)OCC (some centres undefined)	Active	inactive	247	5.8	inactive	Dose-dependent effect	> 80	
CCOC(=O)C1CCN(C(=O)[C@@H](NC(=O)CNC(=O)/C=C/c2ccc(O)c(OC)c2)C(C)C)CC1	Active	inactive					> 80	

The next lines start with results.

Activity [1]	Activity [3]	EC50 [4] [nM]	fold change (FC) [5]	Activity [6]	Activity [4]	Structure (SMILES)	viability at 18 h, 20 µM [2] [%]	also measured
Active	inactive	172	5.4	inactive	Dose-dependent effect	CCOC(=O)CC[C@@H](NC(=O)[C@H](Cc1ccccc1)NC(=O)CNC(=O)/C=C/c1ccc(F)c(F)c1)C(=O)OCC	> 80	
	inactive	92	5.6	inactive	Dose-dependent effect	CC(=O)N[C@H]1C(O)O[C@H](CO)[C@@H](O)[C@@H]1O[C@H](C)C(=O)N[C@@H](C)C(=O)N[C@H](CCC(=O)O)C(N)=O (some centres undefined) [MURAMYL DIPEPTIDE]	> 80	Activity [7]: Active; Activity [8]: Active; Activity [9]: Active; fold change (FC) [10]: 5; fold change (FC) [11]: 3.6; fold change (FC) [12]: 4; Activity [13]: Active; Activity [14]: Active; Activity [15]: Active; Activity [16]: Active; Activity [17]: Active; Ratio [18]: 133; log(ratio) [18]: 2.37
Active	inactive	6980	2.7	inactive		COc1cc(/C=C/C(=O)NCC(=O)N[C@H](C(=O)N[C@H](CCC(=O)O)C(=O)O)C(C)C)ccc1O	> 80	Retention_time [19]: 2.88 min; Stability [20]: Stable; Drug uptake [21]: 0.4 µM
Active	inactive	121	5.7	inactive	Dose-dependent effect	CCOC(=O)CC[C@@H](NC(=O)[C@H](Cc1ccccc1)NC(=O)CNC(=O)/C=C/c1ccc(O)c(OC)c1)C(=O)OCC	> 80	
Active	inactive					CCOC(=O)c1cc(O)ccc1NC(=O)[C@@H](NC(=O)CNC(=O)/C=C/c1ccc(O)c(OC)c1)C(C)C	> 80	
Active	inactive					CCOC(=O)[C@H]1CCCC[C@@H]1NC(=O)[C@@H](NC(=O)CNC(=O)/C=C/c1ccc(O)c(OC)c1)C(C)C	> 80	
Active	inactive	276	5.2	inactive	Dose-dependent effect	CCOC(=O)CC[C@@H](NC(=O)[C@H](Cc1ccccc1)NC(=O)CNC(=O)C1CC1c1ccc(F)c(F)c1)C(=O)OCC (some centres undefined)	> 80	
Active	inactive	223	5.7	inactive	Dose-dependent effect	CCOC(=O)CC[C@@H](NC(=O)[C@@H](NC(=O)CNC(=O)/C=C/c1ccccc1)C(C)C)C(=O)OCC	> 80	
